In general, IC50 refers to the concentration that inhibits the measured activity by half. High values mean weaker potency in that assay, low ones greater potency in that assay.

The structures appear in SMILES notation.

In data set [1] the test system is NCI-H727. Description: Antiproliferative activity against human NCI-H727 cells after 48 hrs by Hoechst 33342 staining-based assay. The class given is functional, cell-based. The conditions noted are these: NCI-H727, 48 h.
Another data set has as its system Caco-2. The data set can be described thus: Antiproliferative activity against human Caco2 cells after 48 hrs by Hoechst 33342 staining-based assay. The class given is functional, cell-based. The conditions noted are these: Caco-2, 48 h.
Data set [2] concerns Huh-7. The data set can be described thus: Antiproliferative activity against human HuH7 cells at 0.1 to 25 uM after 48 hrs by Hoechst 33342 staining-based assay relative to control. The class given is functional.
The subject of data set [3] is Fibroblast. Description: Antiproliferative activity against human fibroblast cells after 48 hrs by Hoechst 33342 staining-based assay. The class given is cell-based.
Data set [4] relates to HCT-116. Description: Antiproliferative activity against human HCT116 cells after 48 hrs by Hoechst 33342 staining-based assay. The conditions noted are these: HCT-116, 48 h. The class given is functional, cell-based.
Data set [5] deals with PC-3. The data set can be described thus: Antiproliferative activity against human PC3 cells after 48 hrs by Hoechst 33342 staining-based assay. The class given is functional, cell-based. The conditions noted are these: PC-3, 48 h.
Data set [6] relates to Huh-7. The data set can be described thus: Antiproliferative activity against human HuH7 cells after 48 hrs by Hoechst 33342 staining-based assay. The class given is functional, cell-based. The conditions noted are these: Huh-7, 48 h.
In data set [7] the test system is HaCaT. Description: Antiproliferative activity against human HaCaT cells after 48 hrs by Hoechst 33342 staining-based assay. The class given is cell-based.
Data set [8] deals with MDA-MB-231. Description: Antiproliferative activity against human MDA-MB-231 cells after 48 hrs by Hoechst 33342 staining-based assay. The class given is functional, cell-based. The conditions noted are these: MDA-MB-231, 48 h.
In data set [9] the test system is HCT-116. Description: Antiproliferative activity against human HCT116 cells at 0.1 to 25 uM after 48 hrs by Hoechst 33342 staining-based assay relative to control. The class given is functional.
Data set [10] relates to HaCaT. Description: Antiproliferative activity against human HaCaT cells at 0.1 to 25 uM after 48 hrs by Hoechst 33342 staining-based assay relative to control. The format is cell-based.
The test system of data set [11] is MDA-MB-231. The data set can be described thus: Antiproliferative activity against human MDA-MB-231 cells at 0.1 to 25 uM after 48 hrs by Hoechst 33342 staining-based assay relative to control. The class given is functional.
Data set [12] deals with PC-3. Description: Antiproliferative activity against human PC3 cells at 0.1 to 25 uM after 48 hrs by Hoechst 33342 staining-based assay relative to control. The format is functional.
Data set [13] has as its system Fibroblast. The data set can be described thus: Antiproliferative activity against human fibroblast cells at 0.1 to 25 uM after 48 hrs by Hoechst 33342 staining-based assay relative to control. The format is cell-based.
Data set [14] relates to NCI-H727. The data set can be described thus: Antiproliferative activity against human NCI-H727 cells at 0.1 to 25 uM after 48 hrs by Hoechst 33342 staining-based assay relative to control. The class given is functional.

Consider `FC(F)(F)c1cccc(-c2ccc(N3CCCC3)nn2)c1`, for which the IC50 was more than 25 µM with NCI-H727 [1]; 50 µM in the data set on Caco-2; more than 25 µM in the data set on Fibroblast [3]; more than 25 µM with HCT-116 [4]; more than 25 µM in the data set with PC-3 [5]; 30 µM in the data set with Huh-7 [6]. Besides, the IC50 with HaCaT [7] and with MDA-MB-231 [8] was more than 25 µM throughout. In the data set on Huh-7 [2], the Activity worked out at 75%.

For the molecule `CC(=O)O[C@H]1C(=O)[C@@]2(C)[C@H]([C@H](OC(=O)c3ccccc3)[C@]3(O)C[C@H](OC(=O)[C@H](O)[C@@H](NC(=O)c4ccccc4)c4ccccc4)C(C)=C1C3(C)C)[C@]1(OC(C)=O)CO[C@@H]1C[C@@H]2O` [PACLITAXEL], the Activity with HCT-116 [9] is recorded as 90%; in the data set with HaCaT [10] it was 70%; in the data set with Huh-7 [2], 50%; in the data set on MDA-MB-231 [11], 60%; in the data set on PC-3 [12] it was 60%; in the data set with Fibroblast [13], 30%. In addition, the 50% inhibitory concentration (IC50) in the data set with Fibroblast [3] is less than 0.001 µM; in the data set on HCT-116 [4] it was less than 0.001 µM; in the data set on PC-3 [5] it was less than 0.001 µM; with Huh-7 [6], 0.012 µM; in the data set on HaCaT [7] it was 0.002 µM; in the data set on MDA-MB-231 [8], 0.06 µM.

For the molecule `CC(=O)c1ccc(-c2ccc(N3CCCC3)nn2)cc1`, the IC50 with NCI-H727 [1] was more than 25 µM; with Caco-2 it was 50 µM; with Fibroblast [3] it was more than 25 µM; in the data set with HCT-116 [4], more than 25 µM; in the data set with PC-3 [5], more than 25 µM; in the data set on Huh-7 [6] it was 30 µM. The IC50 in the data set on HaCaT [7] and with MDA-MB-231 [8] was more than 25 µM in each case. The same molecule returned an Activity in the data set on Huh-7 [2] of 75%.

For the molecule `Oc1cccc(-c2nc(N3CCOCC3)c3oc4ncccc4c3n2)c1` [PI-103], the IC50 with NCI-H727 [1] was more than 25 µM; with Caco-2, 0.8 µM; in the data set on Fibroblast [3] it was more than 25 µM; in the data set with HCT-116 [4], 3 µM; in the data set on PC-3 [5] it was 1.2 µM; in the data set on Huh-7 [6], 6 µM. Moreover, the IC50 was found to be 2 µM in the data set with HaCaT [7] and 8 µM in the data set with MDA-MB-231 [8]. For the same molecule, the Activity in the data set with HCT-116 [9] is listed as 80%; with HaCaT [10], 70%; with Huh-7 [2], 40%; in the data set with MDA-MB-231 [11] it was 40%; in the data set on PC-3 [12], 60%.

Regarding `CCOC(=O)c1cccc(-c2ccc(N(CC)CC)nn2)c1`, the IC50 in the data set with NCI-H727 [1] was 30 µM; with Caco-2, more than 25 µM; in the data set on Fibroblast [3], more than 25 µM; with HCT-116 [4], more than 25 µM; in the data set with PC-3 [5] it was more than 25 µM; in the data set with Huh-7 [6], more than 25 µM. Moreover, the IC50 with HaCaT [7] and with MDA-MB-231 [8] was more than 25 µM each time. This molecule also returned an Activity in the data set with NCI-H727 [14] of 40%.

Take `COC(=O)c1cccc(-c2ccc(-n3cccc3)nn2)c1`: the IC50 in the data set with NCI-H727 [1] was more than 25 µM; in the data set with Caco-2, 50 µM; with Fibroblast [3], more than 25 µM; in the data set with HCT-116 [4] it was more than 25 µM; in the data set with PC-3 [5], more than 25 µM; in the data set on Huh-7 [6], 30 µM. The concentration for half-maximal inhibition (IC50) in the data set with HaCaT [7] and with MDA-MB-231 [8] was more than 25 µM throughout. In addition, the Activity with Huh-7 [2] came out at 75%.

Take `COc1ccc(Nc2ccc(-c3ccccc3)nn2)cc1`: the 50% inhibitory concentration (IC50) in the data set on NCI-H727 [1] is more than 25 µM; in the data set on Caco-2, 50 µM; with Fibroblast [3], more than 25 µM; in the data set with HCT-116 [4], more than 25 µM; in the data set on PC-3 [5], more than 25 µM; in the data set with Huh-7 [6], 30 µM. Moreover, the half-maximal inhibitory concentration (IC50) in the data set on HaCaT [7] and with MDA-MB-231 [8] was more than 25 µM throughout. In the data set with Huh-7 [2], this molecule returned an Activity of 75%.

As for `c1ccc(-c2ccc(N3CCOCC3)nn2)cc1`, the IC50 in the data set with NCI-H727 [1], in the data set on Caco-2, in the data set with Fibroblast [3], in the data set with HCT-116 [4], in the data set on PC-3 [5] and in the data set on Huh-7 [6] was more than 25 µM throughout. Besides, the 50% inhibitory concentration (IC50) with HaCaT [7] and in the data set on MDA-MB-231 [8] was more than 25 µM in each case.

Turning to `CC[C@H](CO)Nc1nc(NCc2ccccc2)c2ncn(C(C)C)c2n1` [SELICICLIB], the Activity in the data set with HCT-116 [9] is on record as 100%; in the data set with HaCaT [10], 80%; with NCI-H727 [14], 40%; in the data set on Huh-7 [2], 90%; in the data set on MDA-MB-231 [11], 80%; in the data set on PC-3 [12], 8%. Further, in the data set on Fibroblast [13], the Activity is on record as 40%. Besides, the half-inhibitory concentration (IC50) turned out to be 12 µM in the data set with Fibroblast [3]; 9 µM in the data set on HCT-116 [4]; 12 µM with PC-3 [5]; 20 µM with Huh-7 [6]; 12 µM in the data set with HaCaT [7].

As for `CN1CCN(c2ccc(-c3cccc(C(F)(F)F)c3)nn2)CC1`, the IC50 was more than 25 µM with NCI-H727 [1]; 50 µM with Caco-2; more than 25 µM with Fibroblast [3]; more than 25 µM with HCT-116 [4]; more than 25 µM with PC-3 [5]; 30 µM in the data set on Huh-7 [6]. In addition, the IC50 with HaCaT [7] and in the data set with MDA-MB-231 [8] was more than 25 µM each time. Also, the Activity in the data set on Huh-7 [2] is listed as 75%.

As for `Cc1ccc(-c2ccc(N3CCN(c4ccccc4)CC3)nn2)cc1`, the IC50 is more than 25 µM in the data set with NCI-H727 [1]; 50 µM with Caco-2; more than 25 µM with Fibroblast [3]; more than 25 µM in the data set with HCT-116 [4]; more than 25 µM in the data set on PC-3 [5]; 30 µM in the data set with Huh-7 [6]. The IC50 with HaCaT [7] and with MDA-MB-231 [8] was more than 25 µM in each case. Also, in the data set with Huh-7 [2], the Activity was determined as 75%.

`CCN(CC)c1ccc(-c2cccc(OC)c2)nn1`: the IC50 in the data set with NCI-H727 [1], in the data set on Caco-2, in the data set with Fibroblast [3], with HCT-116 [4], in the data set on PC-3 [5] and in the data set with Huh-7 [6] was more than 25 µM each time. Moreover, the IC50 in the data set with HaCaT [7] and in the data set on MDA-MB-231 [8] was more than 25 µM in each case.

In the case of `N#Cc1ccc(Oc2ccc(-c3ccccc3)nn2)cc1`, the IC50 in the data set on NCI-H727 [1], with Caco-2, with Fibroblast [3], in the data set on HCT-116 [4], in the data set on PC-3 [5] and in the data set with Huh-7 [6] was more than 25 µM in each case. Besides, the half-inhibitory concentration (IC50) in the data set on HaCaT [7] and in the data set with MDA-MB-231 [8] was more than 25 µM in each case.

As for `Cc1cccc(-c2ccc(Oc3ccc(F)cc3)nn2)c1`, the half-inhibitory concentration (IC50) in the data set with NCI-H727 [1], with Caco-2, in the data set with Fibroblast [3], in the data set with HCT-116 [4], in the data set with PC-3 [5] and with Huh-7 [6] was more than 25 µM throughout. Further, the IC50 with HaCaT [7] and with MDA-MB-231 [8] was more than 25 µM each time.

As for `CCOC(=O)c1ccc(-c2ccc(OC(C)C)nn2)cc1`, the IC50 in the data set with NCI-H727 [1], in the data set with Caco-2, with Fibroblast [3], in the data set on HCT-116 [4], in the data set on PC-3 [5] and in the data set with Huh-7 [6] was more than 25 µM throughout. In addition, the IC50 with HaCaT [7] and with MDA-MB-231 [8] was more than 25 µM each time.

In the case of `c1cncc(-c2ccc(N3CCOCC3)nn2)c1`, the IC50 with NCI-H727 [1], in the data set with Caco-2, in the data set on Fibroblast [3], in the data set on HCT-116 [4], in the data set on PC-3 [5] and in the data set on Huh-7 [6] was more than 25 µM throughout. Moreover, the IC50 in the data set with HaCaT [7] and in the data set on MDA-MB-231 [8] was more than 25 µM throughout.

Regarding `COc1ccccc1-c1ccc(N2CCN(C)CC2)nn1`, the IC50 with NCI-H727 [1] was more than 25 µM; with Caco-2 it was 50 µM; in the data set with Fibroblast [3] it was more than 25 µM; with HCT-116 [4], more than 25 µM; with PC-3 [5], more than 25 µM; in the data set with Huh-7 [6], 30 µM. The IC50 with HaCaT [7] and in the data set with MDA-MB-231 [8] was more than 25 µM throughout. Moreover, the Activity in the data set with Huh-7 [2] was 75%.

These data come from ChEMBL document CHEMBL4422646, “Synthesis and biological evaluation of 3-amino-, 3-alkoxy- and 3-aryloxy-6-(hetero)arylpyridazines as potent antitumor agents” (Bioorg Med Chem Lett, 2019).
